Experimental data published in patent publication US7557092B2, “Purinergic modulation of smell” (University of Utah Research Foundation, priority 2002, dated 2009).
pEC50: −log10 of the molar value. Where “and” joins values, the source holds several entries; their conditions need not be identical. Identical values can stand only once.

Key:
[1] = tested on: cultured mouse olfactory receptor neurons (ORNs); experiment: nystatin perforated-patch voltage-clamp of cultured ORNs; format: cell-based; details: 10 μM ATP
Procedure: The physiological activation of purinergic receptors in cultured mouse ORNs (Vargas and Lucero, 1999a) were examined using both electrophysiology (Danaceau and Lucero, 1998)(FIG. 2A), and calcium imaging (FIG. 2B-E). ATP (10 μM) evoked inward currents in 39% (27/69 ORNs) of the perforated-patched mouse ORNs during brief (1-10 s) applications (FIG. 2A). […] Rapid activation of inward current that closely followed the ATP stimulus profile with little or no desensitization was also observed, indicating involvement of non-desensitizing ionotropic P2X receptors [P2X4 and/or P2X7] (Ralevic and Burnstock, 1998)(FIG. 2A, cell 2) (14/27 cells; latency=81±15 ms, Imax=−235±74 pA). These electrophysiological results support the immunohistochemical evidence of expression of both purinergic receptor subtypes in ORNs.
(§1) To prepare olfactory epithelium slices, neonatal mice (postnatal day 0-6) were quickly decapitated, and the skin and lower jaw were removed. Tissue was mounted in ice cold Ringers onto a vibratome-cutting block and 300 μm slices were made. Primary cultures of mouse ORNs were made using the same protocol and culture conditions as described for rat olfactory receptor neurons (Vargas and Lucero, 1999a). Briefly, tissue was placed in divalent cation-free Ringers containing 10 mg/ml bovine serum albumin, 1 mg/ml deoxyribonuclease II and 44 U/ml dispase, incubated at 37° C. for 45 min. The tissue was washed, triturated, and filtered through a […] mesh and […] cells were plated onto concanavalin A-coated coverslips and allowed to settle for 20 min. An additional 1.5 ml of culture medium was added (DMEM supplemented with […] ascorbic acid, 1X insulin-transferrin-seleniumX (GIBCO BRL), 2 mM glutamine, 100 U/ml penicillin G and […] streptomycin).
The nystatin perforated-patch technique (Horn and Marty, 1988) was used to examine cells under voltage-clamp. Electrodes (2-5 MΩ) were filled with TMA-oxide internal solution (in mM: 62.5 TMA oxide, 62.5 KH2PO4, 15 KCl, 5 MgCl2, 11 EGTA, 10 HEPES, 1 glutathione, 5 TEA, 0.03% pluronic acid F-127, 0.3% DMSO, […] nystatin, pH 7.2, 330 mOsm).

cultured mouse ORNs = experiment: confocal calcium imaging of fluo-4 AM loaded cultured ORNs; format: cell-based
[2] = tested on: ORNs in mouse olfactory epithelium slices; experiment: confocal calcium imaging of fluo-4 AM loaded olfactory epithelium slices, ORNs; format: cell-based; details: 10 μM agonist superfused onto slice
From the text: To study the effects of ATP on odor responses, acutely prepared slices of mouse olfactory epithelium were used. Confocal imaging of fluo-4 AM-loaded olfactory epithelium slices allows simultaneous recording from identified structures within the olfactory epithelium, i.e., both ORNs and sustentacular cells. […] The difference in robustness can be due to poor access to the ATP stimulus: odorant receptors are on the cilia of the ORNs, which extend beyond the outer edge of the olfactory epithelium, whereas purinergic receptors are located deeper within the olfactory epithelium. […] The latency of activation for the ATP-evoked calcium transient was shorter in the ORN (FIG. 3B2, solid up arrowhead) than in sustentacular cells (FIG. 3B3, open down arrowhead). Collectively, this was consistent with ORNs expressing the faster P2X receptors, and the sustentacular cells expressing the slower G-protein coupled P2Y receptors.
as §1
[Ca^2+]i was determined using confocal imaging of fluo-4 AM (18 μM; Molecular Probes) loaded cells and slices. Cells or slices were placed in a laminar flow chamber (Warner Instruments) and perfused continuously with Ringers solution at a flow rate of 1.5-2.0 ml/min. Ringers contained (mM): 140 NaCl, 5 KCl, 1 MgCl2, 2 CaCl2, 10 HEPES, 10 glucose, […] and 400 nM tetrodotoxin. Test solutions were applied using bath exchange and a small volume loop injector (200 μl). A Zeiss LSM 510 confocal laser scanning system was used for data collection and analysis. Time series experiments were performed collecting 1400×700 pixel images at 0.2-0.4 Hz. The fluorometric signals obtained are expressed as relative fluorescence change, ΔF/F═(F−F0)/F0, where F0 is the basal fluorescence level. Increases in F greater than 10% above baseline noise were considered responses.

[3] = tested on: odor responses of mouse ORNs in olfactory epithelium slices; experiment: co-application of odor and purinergic receptor agonist, calcium transients in olfactory epithelium slices; format: cell-based
P2Y4 = P2Y4 (Homo sapiens, UniProt P51582); details: cDNA from Human chromosome X; cited from earlier work
[4] = tested on: P2X and P2Y purinergic receptors; details: cited from earlier work
[5] = cells with long latent period (P2Y-like), 13/27 cells
[6] = rapidly activating cells (P2X-like), 14/27 cells

Sequence of P2Y4 (P51582 whole entry): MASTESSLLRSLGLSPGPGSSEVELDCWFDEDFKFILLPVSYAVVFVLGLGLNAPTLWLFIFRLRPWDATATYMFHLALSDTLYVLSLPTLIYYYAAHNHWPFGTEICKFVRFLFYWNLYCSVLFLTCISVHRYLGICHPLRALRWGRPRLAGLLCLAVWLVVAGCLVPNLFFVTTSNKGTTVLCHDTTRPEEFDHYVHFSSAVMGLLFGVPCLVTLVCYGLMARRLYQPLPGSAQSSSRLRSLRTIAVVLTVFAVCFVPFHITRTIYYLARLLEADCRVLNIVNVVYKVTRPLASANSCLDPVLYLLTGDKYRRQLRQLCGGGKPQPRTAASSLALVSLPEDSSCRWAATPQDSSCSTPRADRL

Compound: Nc1ncnc2c1ncn2[C@@H]1O[C@H](COP(=O)(O)OP(=O)(O)OP(=O)(O)O)[C@@H](O)[C@H]1O [ATP, Adenosine 5′-triphosphate]
- ORNs in which ATP evoked inward currents ([1]; brief (1-10 s) applications, perforated-patched mouse ORNs, 27/69 ORNs): 39%
- Imax [1, 5]: −29±8 pA
- latency of inward current [1, 5]: 1140 ± 236 ms
- Imax [1, 6]: −235±74 pA
- latency of inward current [1, 6]: 81 ± 15 ms
- ATP-induced rise in [Ca2+]i in the absence of external Ca2+, larger than in the presence of Ca2+ (cultured mouse ORNs; 10 μM ATP, 0 Ca2+ + EGTA): 31±11%
- ΔF/F increase in [Ca2+]i, average (cultured mouse ORNs; 10 μM ATP, n=76): 151±12%
- ΔF/F increase in [Ca2+]i, range (cultured mouse ORNs; 10 μM ATP, n=76): 13-398%
- pEC50 (cultured mouse ORNs; Mus musculus, averaged dose-response, maximum % ΔF/F relative to 10 μM ATP, n=58, read-out: EC50 of ATP-induced [Ca2+]i increases): 5.80
- ORNs with rapid transient increase in [Ca2+]i (cultured mouse ORNs; extracellularly applied ATP): 76/84
- agonist-evoked calcium transients in ORNs [2]: evoked calcium transients from all 11 ORNs
- odor-responsive cells with a significant decrease in the summed [Ca2+]i increase ([3]; co-application of 10 μM ATP and odor (10 μM n-amyl acetate+10 μM R-carvone)): 62%
- mean suppression of the summed [Ca2+]i increase ([3]; co-application of 10 μM ATP and odor, n=26): 57±5% and 57%±5%
- mean enhancement of evoked [Ca2+]i increase ([3]; co-application of 10 μM ATP and odor, the two ORNs with >20% increase): 157±34%
- Agonist activity (P2Y4): UTP > UDP (ATP inactive)
- concentrations that activate P2X and P2Y purinergic receptors [4]: 0.1 to 10 µM
